From patent publication US9493446B2, “Orexin receptor antagonists which are [ortho bi-(hetero-)aryl]-[2-(meta bi-(hetero-)aryl)-pyrrolidin-1-yl]-methanone derivatives” (Actelion Pharmaceuticals Ltd, priority 2012, dated 2016)
Like-named read-outs stand apart in the source and are kept apart here.

Columns and labels:
human orexin-2 receptor = human orexin-2 receptor (Homo sapiens (Human), UniProt O43614); experiment: Intracellular calcium measurement (FLIPR), CHO cells expressing human orexin-2 receptor, 3 nM orexin-A; assay type: cell-based; settings: read-out: IC50 OX2
Chain of human orexin-2 receptor (O43614 whole entry): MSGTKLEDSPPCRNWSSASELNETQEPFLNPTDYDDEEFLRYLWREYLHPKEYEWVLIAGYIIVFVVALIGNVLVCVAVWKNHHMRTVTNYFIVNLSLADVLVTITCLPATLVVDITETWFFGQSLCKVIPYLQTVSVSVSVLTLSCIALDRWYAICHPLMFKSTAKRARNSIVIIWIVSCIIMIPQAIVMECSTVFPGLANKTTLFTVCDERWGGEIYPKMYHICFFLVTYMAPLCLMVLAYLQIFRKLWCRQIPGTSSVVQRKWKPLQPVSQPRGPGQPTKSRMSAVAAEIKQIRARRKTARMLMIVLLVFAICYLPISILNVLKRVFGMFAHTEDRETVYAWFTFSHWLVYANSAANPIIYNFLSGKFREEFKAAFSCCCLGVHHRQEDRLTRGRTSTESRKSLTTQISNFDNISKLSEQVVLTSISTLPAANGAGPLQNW
How it was run: (§1)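 Fluo-4 AM-loaded CHO cells; antagonist preincubation 120 min, then 3 nM orexin-A (final) in HBSS/0.1% BSA/20 mM HEPES. FLIPR read at 1 s intervals; peak height vs. agonist-plus-vehicle control → IC50.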

orexin-1 = orexin-1 (Homo sapiens (Human), UniProt O43613); experiment: Intracellular calcium measurement (FLIPR), CHO cells expressing human orexin-1 receptor, 3 nM orexin-A; assay type: cell-based; settings: read-out: IC50 OX1
Chain of orexin-1 (O43613 whole entry): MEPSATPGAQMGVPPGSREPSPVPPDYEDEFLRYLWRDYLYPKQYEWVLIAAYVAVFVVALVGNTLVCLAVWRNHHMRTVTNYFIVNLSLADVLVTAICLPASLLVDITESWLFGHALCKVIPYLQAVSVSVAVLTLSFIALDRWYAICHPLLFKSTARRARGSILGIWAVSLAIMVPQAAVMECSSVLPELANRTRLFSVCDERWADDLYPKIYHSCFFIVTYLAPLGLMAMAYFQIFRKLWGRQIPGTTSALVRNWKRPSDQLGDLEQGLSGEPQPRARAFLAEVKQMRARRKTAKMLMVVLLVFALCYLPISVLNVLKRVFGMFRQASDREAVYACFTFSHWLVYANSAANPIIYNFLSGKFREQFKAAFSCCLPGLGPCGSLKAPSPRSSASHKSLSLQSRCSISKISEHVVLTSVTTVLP
How it was run: as §1

[1] = CHO cells expressing human orexin-2 receptor, FLIPR, 3 nM orexin-A, geometric mean if determined several times
[2] = CHO cells expressing human orexin-1 receptor, FLIPR, 3 nM orexin-A, geometric mean if determined several times

Compound: CCOc1ncccc1-c1nnc([C@@H]2CCCN2C(=O)c2cc(C)ccc2-n2nccn2)o1 [Example 450, {(S)-2-[5-(2-Ethoxy-pyridin-3-yl)-[1,3,4]oxadiazol-2-yl]-pyrrolidin-1-yl}-(5-methyl-2-[1,2,3]triazol-2-yl-phenyl)-methanone]
- IC50 (human orexin-2 receptor; [1]): 95 nM
- IC50 (orexin-1; [2]): 182 nM

Compound: O=C(c1cc(F)ccc1-n1nccn1)N1CCC[C@H]1c1nc(-c2ccccc2OC(F)(F)F)no1 [compound 155, (5-Fluoro-2-[1,2,3]triazol-2-yl-phenyl)-{(S)-2-[3-(2-trifluoromethoxy-phenyl)-[1,2,4]oxadiazol-5-yl]-pyrrolidin-1-yl}-methanone]
- IC50 (human orexin-2 receptor; [1]): 43 nM
- IC50 (orexin-1; [2]): 174 nM

Compound: Cc1ccc(-n2nccn2)c(C(=O)N2CCC[C@H]2c2nc(-c3cccc(F)c3C)no2)c1 [compound 26, {(S)-2-[3-(3-Fluoro-2-methyl-phenyl)-[1,2,4]oxadiazol-5-yl]-pyrrolidin-1-yl}-(5-methyl-2-[1,2,3]triazol-2-yl-phenyl)-methanone]
- IC50 (human orexin-2 receptor; [1]): 5 nM
- IC50 (orexin-1; [2]): 77 nM

Compound: Cc1ccc(-c2ncco2)c(C(=O)N2CCC[C@H]2c2nc(-c3ccccc3OC(F)(F)F)no2)c1 [compound 175, (5-Methyl-2-oxazol-2-yl-phenyl)-{(S)-2-[3-(2-trifluoromethoxy-phenyl)-[1,2,4]oxadiazol-5-yl]-pyrrolidin-1-yl}-methanone]
- IC50 (human orexin-2 receptor; [1]): 12 nM
- IC50 (orexin-1; [2]): 14 nM

Compound: Cc1nc(C(=O)N2CCC[C@H]2c2nc(-c3cccc(Cl)c3C)no2)c(-c2ccccc2F)s1 [compound 124]
- IC50 (human orexin-2 receptor; [1]): 77 nM
- IC50 (orexin-1; [2]): 145 nM

Compound: COc1cc(C(=O)N2CCC[C@H]2c2nc(-c3cccc(F)c3OC)no2)c(-n2nccn2)cc1C [compound 201, {(S)-2-[3-(3-Fluoro-2-methoxy-phenyl)-[1,2,4]oxadiazol-5-yl]-pyrrolidin-1-yl}-(5-methoxy-4-methyl-2-[1,2,3]triazol-2-yl-phenyl)-methanone]
- IC50 (human orexin-2 receptor; [1]): 2 nM
- IC50 (orexin-1; [2]): 27 nM

Compound: COc1cc(C(=O)N2CCC[C@H]2c2noc(-c3cc(C)ccc3OC)n2)c(-n2nccn2)cc1C [compound 387, {(S)-2-[5-(2-Methoxy-5-methyl-phenyl)-[1,2,4]oxadiazol-3-yl]-pyrrolidin-1-yl}-(5-methoxy-4-methyl-2-[1,2,3]triazol-2-yl-phenyl)-methanone]
- IC50 (human orexin-2 receptor; [1]): 3 nM
- IC50 (orexin-1; [2]): 57 nM

Compound: Cc1c(Cl)cccc1-c1noc([C@@H]2CCCN2C(=O)c2cc(Cl)ccc2-n2nccn2)n1 [compound 264]
- IC50 (human orexin-2 receptor): 14 nM
- IC50 (orexin-1; [2]): 165 nM

Compound: COc1ccccc1-c1noc([C@@H]2CCCN2C(=O)c2cc(Cl)ccc2-n2nccn2)n1 [compound 228]
- IC50 (human orexin-2 receptor; [1]): 134 nM
- IC50 (orexin-1): 272 nM

Compound: Cc1cc(C(=O)N2CCC[C@H]2c2nc(-c3ccccc3Cl)no2)c(-n2nccn2)cc1C [compound 238]
- IC50 (human orexin-2 receptor; [1]): 16 nM
- IC50 (orexin-1; [2]): 104 nM

Compound: C[C@@]1(c2nnc(-c3ccccc3OC(F)(F)F)[nH]2)CCCN1C(=O)c1cc(Cl)ccc1-n1nccn1 [compound 547]
- IC50 (human orexin-2 receptor; [1]): 34 nM
- IC50 (orexin-1; [2]): 25 nM

Compound: CCOc1ncccc1-c1noc([C@@H]2CCCN2C(=O)c2cc(OC)c(OC)cc2-n2nccn2)n1 [compound 226, (4,5-Dimethoxy-2-[1,2,3]triazol-2-yl-phenyl)-{(S)-2-[3-(2-ethoxy-pyridin-3-yl)-[1,2,4]oxadiazol-5-yl]-pyrrolidin-1-yl}-methanone]
- IC50 (human orexin-2 receptor; [1]): 148 nM
- IC50 (orexin-1; [2]): 160 nM

Compound: Cc1cc(-n2nccn2)c(C(=O)N2CCC[C@@]2(C)c2nnc(-c3ccccc3OC(F)(F)F)[nH]2)cc1Cl [compound 545]
- IC50 (human orexin-2 receptor): 8 nM
- IC50 (orexin-1; [2]): 4 nM

Compound: O=C(c1cccc(F)c1-c1ccn[nH]1)N1CCC[C@H]1c1nc(-c2ccccc2OC(F)F)no1 [compound 190, {(S)-2-[3-(2-Difluoromethoxy-phenyl)-[1,2,4]oxadiazol-5-yl]-pyrrolidin-1-yl}-[3-fluoro-2-(2H-pyrazol-3-yl)-phenyl]-methanone]
- IC50 (human orexin-2 receptor; [1]): 14 nM
- IC50 (orexin-1; [2]): 53 nM

Compound: Cc1ccc(-n2nccn2)c(C(=O)N2CCC[C@H]2c2nc(-c3ccnc(Cl)c3)no2)c1 [compound 73]
- IC50 (human orexin-2 receptor; [1]): 1160 nM
- IC50 (orexin-1; [2]): 3480 nM

Compound: Cc1cccc(-c2sc(C)nc2C(=O)N2CCC[C@H]2c2nc(-c3cccc(Cl)c3C)no2)c1 [compound 126]
- IC50 (human orexin-2 receptor; [1]): 118 nM
- IC50 (orexin-1; [2]): 221 nM

Compound: Thiophen-2-yl-[(S)-2-(3-o-tolyl-[1,2,4]oxadiazol-5-yl)-pyrrolidin-1-yl]-methanone [Reference compound 3, reference compound]
- IC50 (human orexin-2 receptor): 34 nM
- IC50 (orexin-1; [2]): 182 nM

Compound: Cc1cccc(-n2nccn2)c1C(=O)N1CCC[C@H]1c1nc(-c2cccc(Cl)c2C)no1 [compound 98]
- IC50 (human orexin-2 receptor; [1]): 127 nM
- IC50 (orexin-1; [2]): 462 nM

Compound: COc1cc(C(=O)N2CCC[C@H]2c2noc(-c3cccc(C)c3C)n2)c(-n2nccn2)cc1Cl [compound 406]
- IC50 (human orexin-2 receptor; [1]): 2 nM
- IC50 (orexin-1; [2]): 22 nM

Compound: COc1cc(C(=O)N2CCC[C@H]2c2nc(-c3cccc(Cl)c3C)no2)c(-n2nccn2)cc1F [compound 130]
- IC50 (human orexin-2 receptor; [1]): 16 nM
- IC50 (orexin-1; [2]): 188 nM

Compound: COc1cc(OC)cc(-c2noc([C@@H]3CCCN3C(=O)c3cc(C)ccc3-n3nccn3)n2)c1 [compound 47, {(S)-2-[3-(3,5-Dimethoxy-phenyl)-[1,2,4]oxadiazol-5-yl]-pyrrolidin-1-yl}-(5-methyl-2-[1,2,3]triazol-2-yl-phenyl)-methanone]
- IC50 (human orexin-2 receptor; [1]): 90 nM
- IC50 (orexin-1; [2]): 316 nM

Compound: CCOc1c(F)cccc1-c1nc([C@@H]2CCCN2C(=O)c2cc(Cl)ccc2-n2nccn2)no1 [compound 327]
- IC50 (human orexin-2 receptor): 4 nM
- IC50 (orexin-1; [2]): 38 nM

Compound: COc1cc(C(=O)N2CCC[C@H]2c2noc(-c3cccc(OC)c3C)n2)c(-n2nccn2)cc1Cl [compound 355]
- IC50 (human orexin-2 receptor; [1]): 8 nM
- IC50 (orexin-1; [2]): 188 nM

Compound: Cc1ccc(C(=O)N2CCC[C@H]2c2cc(-c3ccccc3OC(F)(F)F)on2)c(-n2nccn2)c1 [compound 435, (4-Methyl-2-[1,2,3]triazol-2-yl-phenyl)-{(S)-2-[5-(2-trifluoromethoxy-phenyl)-isoxazol-3-yl]-pyrrolidin-1-yl}-methanone]
- IC50 (human orexin-2 receptor; [1]): 31 nM
- IC50 (orexin-1; [2]): 35 nM

Compound: Cc1ccc(-n2nccn2)c(C(=O)N2CCC[C@H]2c2nnc(-c3cccc(F)c3C)[nH]2)c1 [compound 494, {(S)-2-[5-(3-Fluoro-2-methyl-phenyl)-4H-[1,2,4]triazol-3-yl]-pyrrolidin-1-yl}-(5-methyl-2-[1,2,3]triazol-2-yl-phenyl)-methanone]
- IC50 (human orexin-2 receptor; [1]): 27 nM
- IC50 (orexin-1; [2]): 847 nM

Compound: Cc1ccc(C)c(-c2nc([C@@H]3CCCN3C(=O)c3ccc(Cl)cc3-n3nccn3)no2)c1 [compound 399]
- IC50 (human orexin-2 receptor; [1]): 10 nM
- IC50 (orexin-1): 77 nM

Compound: {(S)-2-[5-(3-Chloro-2-methyl-phenyl)-[1,3,4]oxadiazol-2-yl]-pyrrolidin-1-yl}-[3-(2-chloro-phenyl)-5-methyl-isoxazol-4-yl]-methanone [Reference compound 9, reference compound]
- IC50 (human orexin-2 receptor; [1]): 242 nM
- IC50 (orexin-1): 853 nM

Compound: COc1ccc(C)c(-c2nc([C@@H]3CCCN3C(=O)c3cc(Cl)ccc3-n3nccn3)no2)c1 [compound 416]
- IC50 (human orexin-2 receptor; [1]): 20 nM
- IC50 (orexin-1): 152 nM

Compound: COc1cc(C(=O)N2CCC[C@H]2c2cc(-c3ccccc3OC(F)(F)F)on2)c(-n2nccn2)cc1Cl [compound 437]
- IC50 (human orexin-2 receptor; [1]): 15 nM
- IC50 (orexin-1): 62 nM

Compound: Cc1ccc(C(=O)N2CCC[C@H]2c2nc(-c3ccccc3Cl)no2)c(-n2nccn2)c1 [compound 237]
- IC50 (human orexin-2 receptor; [1]): 186 nM
- IC50 (orexin-1; [2]): 844 nM

Compound: COc1cc(C(=O)N2CCC[C@H]2c2nnc(-c3cccc(Cl)c3C)o2)c(-n2nccn2)cc1Cl [compound 446]
- IC50 (human orexin-2 receptor; [1]): 6 nM
- IC50 (orexin-1; [2]): 82 nM

Compound: Cc1cc(C(=O)N2CCC[C@H]2c2noc(-c3cccc(F)c3C)n2)c(-n2nccn2)cc1C [compound 339, (4,5-Dimethyl-2-[1,2,3]triazol-2-yl-phenyl)-{(S)-2-[5-(3-fluoro-2-methyl-phenyl)-[1,2,4]oxadiazol-3-yl]-pyrrolidin-1-yl}-methanone]
- IC50 (human orexin-2 receptor; [1]): 2 nM
- IC50 (orexin-1; [2]): 15 nM

Compound: COc1cc(C(=O)N2CCC[C@H]2c2nnc(-c3ccccc3OC)[nH]2)c(-n2nccn2)cc1C [compound 468, (5-Methoxy-4-methyl-2-[1,2,3]triazol-2-yl-phenyl)-{(S)-2-[5-(2-methoxy-phenyl)-4H-[1,2,4]triazol-3-yl]-pyrrolidin-1-yl}-methanone]
- IC50 (human orexin-2 receptor; [1]): 35 nM
- IC50 (orexin-1; [2]): 84 nM

Compound: O=C(c1cccs1)N1CCC[C@H]1c1nc(-c2ccccc2)no1 [Ref 1]
- IC50 (human orexin-2 receptor; [1]): > 10000 nM
- IC50 (orexin-1; [2]): > 8500 nM

Compound: Furan-3-yl-[(S)-2-(3-phenyl-[1,2,4]oxadiazol-5-yl)-pyrrolidin-1-yl]-methanone [Reference compound 4, reference compound]
- IC50 (human orexin-2 receptor; [1]): 897 nM
- IC50 (orexin-1): > 5040 nM

Compound: O=C(c1ccccc1-n1nccn1)N1CCC[C@H]1c1nc(-c2ccccc2C(F)(F)F)no1 [compound 178, (2-[1,2,3]Triazol-2-yl-phenyl)-{(S)-2-[3-(2-trifluoromethyl-phenyl)-[1,2,4]oxadiazol-5-yl]-pyrrolidin-1-yl}-methanone]
- IC50 (human orexin-2 receptor; [1]): 132 nM
- IC50 (orexin-1; [2]): 549 nM

Compound: Cc1cccc(-c2ocnc2C(=O)N2CCC[C@H]2c2nnc(-c3ccccc3OC(F)(F)F)[nH]2)c1 [compound 486, (5-m-Tolyl-oxazol-4-yl)-{(S)-2-[5-(2-trifluoromethoxy-phenyl)-4H-[1,2,4]triazol-3-yl]-pyrrolidin-1-yl}-methanone]
- IC50 (human orexin-2 receptor; [1]): 3130 nM
- IC50 (orexin-1; [2]): 2360 nM

Compound: COc1ccc(-n2nccn2)c(C(=O)N2CCC[C@H]2c2nc(-c3cccc(Cl)c3C)no2)c1F [compound 265]
- IC50 (human orexin-2 receptor; [1]): 76 nM
- IC50 (orexin-1; [2]): 112 nM

Compound: Cc1ccccc1-c1noc([C@@H]2CCCN2C(=O)c2ccoc2)n1 [Ref 6]
- IC50 (human orexin-2 receptor; [1]): > 10000 nM
- IC50 (orexin-1; [2]): > 8500 nM

Compound: Cc1ccc(-n2cccn2)c(C(=O)N2CCC[C@H]2c2nc(-c3ccccc3OC(F)(F)F)no2)n1 [compound 160, (6-Methyl-3-pyrazol-1-yl-pyridin-2-yl)-{(S)-2-[3-(2-trifluoromethoxy-phenyl)-[1,2,4]oxadiazol-5-yl]-pyrrolidin-1-yl}-methanone]
- IC50 (human orexin-2 receptor; [1]): 212 nM
- IC50 (orexin-1; [2]): 238 nM
